Source: ChEMBL document CHEMBL1201862, “PubChem BioAssay data set” (2004)
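Protocol summary: plate cells (96-well), add compound at 5 concentrations, incubate 48 h, interpolate endpoints linearly. GI50 is the concentration that inhibits growth by half.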 The source made the active and inactive calls. Rule as the data show it: active = GI50 up to about 1.1 µM and inactive = higher.

What was measured:
Assay in all cases: inhibition of tumour cell growth, NCI panel, 48 h
[1] = tested on: A498
[2] = tested on: A549
[3] = tested on: CAKI-1
[4] = tested on: CCRF-CEM
[5] = tested on: COLO 205
[6] = tested on: DLD-1
[7] = tested on: DMS-114
[8] = tested on: DMS-273
[9] = tested on: EKVX
[10] = tested on: HCC 2998
[11] = tested on: HCT-116
[12] = tested on: HCT-15
[13] = tested on: HL-60
[14] = tested on: HOP-18
[15] = tested on: HOP-62
[16] = tested on: HOP-92
[17] = tested on: HT-29
[18] = tested on: IGROV-1
[19] = tested on: K562
[20] = tested on: KM-20L2
[21] = tested on: KM12
[22] = tested on: LOX IMVI
[23] = tested on: M19-MEL
[24] = tested on: MCF7
[25] = tested on: MOLT-4
[26] = tested on: Malme-3M
[27] = tested on: NCI-H226
[28] = tested on: NCI-H23
[29] = tested on: NCI-H460
[30] = tested on: NCI-H522
[31] = tested on: NCI/ADR-RES
[32] = tested on: OVCAR-3
[33] = tested on: OVCAR-4
[34] = tested on: OVCAR-5
[35] = tested on: OVCAR-8
[36] = tested on: RPMI-8226
[37] = tested on: RXF 393
[38] = tested on: SF-268
[39] = tested on: SF-295
[40] = tested on: SF-539
[41] = tested on: SK-MEL-28
[42] = tested on: SK-MEL-2
[43] = tested on: SK-MEL-5
[44] = tested on: SK-OV-3
[45] = tested on: SN12C
[46] = tested on: SNB-19
[47] = tested on: SNB-75
[48] = tested on: SNB-78
[49] = tested on: SW-620
[50] = tested on: U-251
[51] = tested on: UACC-257
[52] = tested on: UACC-62
[53] = tested on: UO-31
[54] = tested on: XF498
[55] = tested on: 786-0
[56] = tested on: ACHN
[57] = tested on: BT-549
[58] = tested on: DU-145
[59] = tested on: Hs-578T
[60] = tested on: LXFL 529
[61] = tested on: M14
[62] = tested on: MDA-MB-231
[63] = tested on: MDA-MB-435
[64] = tested on: MDA-N
[65] = tested on: PC-3
[66] = tested on: SR
[67] = tested on: T47D
[68] = tested on: TK-10
[69] = tested on: RXF 631

## Cc1csc(/N=C(/NCCN2CCOCC2)Nc2nc(C)cs2)n1
[1]
  GI50: > 57.9 µM (inactive)
[2]
  GI50: > 100 µM (inactive)
[3]
  GI50: > 76.2 µM (inactive)
[4]
  GI50: > 100 µM (inactive)
[5]
  GI50: > 100 µM (inactive)
[6]
  GI50: > 100 µM (inactive)
[7]
  GI50: > 100 µM (inactive)
[8]
  GI50: > 100 µM (inactive)
[9]
  GI50: > 87.9 µM (inactive)
[10]
  GI50: > 100 µM (inactive)
[11]
  GI50: > 70.1 µM (inactive)
[12]
  GI50: > 100 µM
[13]
  GI50: 60.7 µM (inactive)
[14]
  GI50: > 100 µM (inactive)
[15]
  GI50: > 100 µM (inactive)
[16]
  GI50: > 88.9 µM (inactive)
[17]
  GI50: > 100 µM (inactive)
[18]
  GI50: > 100 µM (inactive)
[19]
  GI50: > 100 µM (inactive)
[20]
  GI50: > 100 µM (inactive)
[21]
  GI50: > 100 µM (inactive)
[22]
  GI50: > 100 µM (inactive)
[23]
  GI50: > 100 µM (inactive)
[24]
  GI50: > 84.5 µM (inactive)
[25]
  GI50: > 100 µM (inactive)
[26]
  GI50: > 100 µM (inactive)
[27]
  GI50: > 100 µM (inactive)
[28]
  GI50: > 100 µM (inactive)
[29]
  GI50: > 100 µM (inactive)
[30]
  GI50: > 100 µM (inactive)
[31]
  GI50: > 100 µM (inactive)
[32]
  GI50: > 100 µM (inactive)
[33]
  GI50: > 100 µM (inactive)
[34]
  GI50: > 100 µM (inactive)
[35]
  GI50: > 100 µM (inactive)
[36]
  GI50: > 100 µM (inactive)
[37]
  GI50: > 100 µM (inactive)
[38]
  GI50: > 100 µM (inactive)
[39]
  GI50: > 80.2 µM (inactive)
[40]
  GI50: > 100 µM (inactive)
[41]
  GI50: > 100 µM (inactive)
[42]
  GI50: > 100 µM (inactive)
[43]
  GI50: > 100 µM (inactive)
[44]
  GI50: > 100 µM (inactive)
[45]
  GI50: > 100 µM (inactive)
[46]
  GI50: > 100 µM (inactive)
[47]
  GI50: > 63.2 µM (inactive)
[48]
  GI50: > 100 µM (inactive)
[49]
  GI50: > 100 µM (inactive)
[50]
  GI50: > 100 µM (inactive)
[51]
  GI50: > 100 µM (inactive)
[52]
  GI50: > 100 µM (inactive)
[53]
  GI50: > 100 µM (inactive)
[54]
  GI50: > 100 µM (inactive)

## COc1ccc(C(=O)/C=C/c2ccc(OCC(=O)N3CCN(c4ccccc4)CC3)cc2)cc1
[55]
  GI50: 30.1 µM (inactive)
[1]
  GI50: 55.1 µM (inactive)
[2]
  GI50: 51.6 µM (inactive)
[56]
  GI50: 63.1 µM (inactive)
[57]
  GI50: 24.9 µM (inactive)
[3]
  GI50: 77.8 µM (inactive)
[4]
  GI50: > 35.6 µM (inactive)
[5]
  GI50: > 64.6 µM (inactive)
[6]
  GI50: > 100 µM (inactive)
[7]
  GI50: > 90.6 µM (inactive)
[8]
  GI50: 29.8 µM (inactive)
[58]
  GI50: > 100 µM (inactive)
[9]
  GI50: > 70.5 µM (inactive)
[10]
  GI50: > 100 µM (inactive)
[11]
  GI50: 64.6 µM (inactive)
[12]
  GI50: 54.7 µM
[13]
  GI50: > 35.6 µM (inactive)
[14]
  GI50: > 100 µM (inactive)
[15]
  GI50: 39.1 µM (inactive)
[16]
  GI50: 14.2 µM (inactive)
[17]
  GI50: > 100 µM (inactive)
[59]
  GI50: > 40.7 µM (inactive)
[18]
  GI50: 34 µM (inactive)
[19]
  GI50: > 60.5 µM (inactive)
[20]
  GI50: > 100 µM (inactive)
[21]
  GI50: > 76.4 µM (inactive)
[22]
  GI50: > 73.6 µM (inactive)
[60]
  GI50: > 65.8 µM (inactive)
[61]
  GI50: > 100 µM (inactive)
[23]
  GI50: > 100 µM (inactive)
[24]
  GI50: 78.2 µM (inactive)
[62]
  GI50: > 27.3 µM (inactive)
[63]
  GI50: > 100 µM (inactive)
[64]
  GI50: > 100 µM (inactive)
[25]
  GI50: > 26.7 µM (inactive)
[26]
  GI50: > 80.7 µM (inactive)
[27]
  GI50: > 83 µM (inactive)
[28]
  GI50: 38.6 µM (inactive)
[29]
  GI50: 82.4 µM (inactive)
[30]
  GI50: 17.7 µM (inactive)
[31]
  GI50: 43.2 µM (inactive)
[32]
  GI50: 74.3 µM (inactive)
[33]
  GI50: 46.9 µM (inactive)
[34]
  GI50: > 100 µM (inactive)
[35]
  GI50: 71 µM (inactive)
[65]
  GI50: 45.5 µM (inactive)
[36]
  GI50: > 39.8 µM (inactive)
[37]
  GI50: 26.1 µM (inactive)
[38]
  GI50: 54 µM (inactive)
[39]
  GI50: 32.6 µM (inactive)
[40]
  GI50: 18.9 µM (inactive)
[41]
  GI50: > 100 µM (inactive)
[42]
  GI50: 45.4 µM (inactive)
[43]
  GI50: 59.6 µM (inactive)
[44]
  GI50: 29.1 µM (inactive)
[45]
  GI50: > 65.9 µM (inactive)
[46]
  GI50: 27.9 µM (inactive)
[47]
  GI50: 23.7 µM (inactive)
[48]
  GI50: 15.1 µM (inactive)
[66]
  GI50: 18.6 µM (inactive)
[49]
  GI50: 72.4 µM (inactive)
[67]
  GI50: 35.6 µM (inactive)
[68]
  GI50: 44.7 µM (inactive)
[50]
  GI50: 28.4 µM (inactive)
[51]
  GI50: > 100 µM (inactive)
[52]
  GI50: 75.2 µM (inactive)
[53]
  GI50: 44.2 µM (inactive)
[54]
  GI50: 35.9 µM (inactive)

## CC1(Cl)CCC2(CC(Br)=CC3OC32C)CC1Br (configuration not stated)
[1]
  GI50: 26.6 µM (inactive)
[2]
  GI50: 28.6 µM (inactive)
[4]
  GI50: 18.6 µM (inactive)
[7]
  GI50: 29.4 µM (inactive)
[9]
  GI50: 52.6 µM (inactive)
[11]
  GI50: 18.2 µM (inactive)
[13]
  GI50: 15.2 µM (inactive)
[15]
  GI50: 39.4 µM (inactive)
[16]
  GI50: 24.9 µM (inactive)
[17]
  GI50: 17.9 µM (inactive)
[18]
  GI50: 42.9 µM (inactive)
[21]
  GI50: 32.5 µM (inactive)
[61]
  GI50: 43.2 µM (inactive)
[23]
  GI50: 32.3 µM (inactive)
[25]
  GI50: 17 µM (inactive)
[27]
  GI50: 23.2 µM (inactive)
[28]
  GI50: 20.1 µM (inactive)
[29]
  GI50: 27.1 µM (inactive)
[30]
  GI50: 23.9 µM (inactive)
[34]
  GI50: 79.4 µM (inactive)
[35]
  GI50: 30.8 µM (inactive)
[37]
  GI50: 18.3 µM (inactive)
[69]
  GI50: > 10 µM (inactive)
[38]
  GI50: 19.2 µM (inactive)
[39]
  GI50: 22.6 µM (inactive)
[41]
  GI50: 23.6 µM (inactive)
[44]
  GI50: 51.8 µM (inactive)
[46]
  GI50: 45 µM (inactive)
[48]
  GI50: 12.4 µM (inactive)
[66]
  GI50: 20.7 µM (inactive)
[68]
  GI50: 46.6 µM (inactive)
[50]
  GI50: 19 µM (inactive)
[51]
  GI50: 18.4 µM (inactive)
[52]
  GI50: 19.2 µM (inactive)
[53]
  GI50: 28.6 µM (inactive)
